Active and inactive are the calls of the source. The rule behind the calls is not given here.

Data set [1] relates to B16-F10. Description: Antitumor activity against mouse B16F10 cells […] in C57BL/6 mouse assessed as reduction of tumor size at 100 ug administered as intratumorally for 3 days. The format is functional, cell-based.
Data set [2] can be described thus: Prodrug activation mediated by mushroom tyrosinase assessed as 4-[bis-(2-chloroethyl) amino]benzoic cid formation up to 120 mins by TLC, HPLC or MS analysis. To be noted: agaricus bisporus, 2 h.
A further data set deals with NIH3T3. Description: Cytotoxicity against mouse NIH/3T3 cells at 250 uM after 24 to 48 hrs by MTT assay. The format is cell-based. To be noted: nih3t3, 250 µM. Background: Formazan colour is commonly taken as a measure of viable cells.
Data set [3] is described as follows: Cytotoxicity against mouse HECa10 cells at 250 uM after 24 to 48 hrs by MTT assay. The format is cell-based.
Data set [4] can be described thus: Prodrug activation mediated by mushroom tyrosinase assessed as 5,6-dihydroxy-1H-indazol-1-yl 4-[bis-(2-chloroethyl)amino]benzoate formation up to 120 mins by UV-Vis spectroscopy. The settings on record: agaricus bisporus, 2 h.
For data set [5], the system named is B16-F10. Briefly: Cytotoxicity against mouse B16F10 cells at 250 uM after 24 to 48 hrs by MTT assay. Type of data set: functional, cell-based.
Data set [6] is described as follows: Prodrug activation mediated by mushroom tyrosinase assessed as N-{4-[bis-(2-chloroethyl)amino]benzoyl}-N''-(4-hydroxybenzylidene)hydrazine formation up to 120 mins by TLC, HPLC or MS analysis. The settings on record: agaricus bisporus, 2 h.

For the compound `N[C@@H](Cc1ccc(N(CCCl)CCCl)cc1)C(=O)O`, in the data set with B16-F10 [1], the outcome was Active.

As to `O=C(NNCc1ccc(O)cc1)c1ccc(N(CCCl)CCCl)cc1`, the Drug metabolism entry in data set [2] was “Not Active”; in data set [4] it was “Active”; in data set [6], “Active”. Moreover, the Activity result (in the data set on NIH3T3; in data set [3]) was “Toxic” in each case. In addition, the outcome in the data set with B16-F10 [1] and in the data set on B16-F10 [5] was Active.

Source of the values: ChEMBL document CHEMBL3098120, “Synthesis and analysis of activity of a potential anti-melanoma prodrug with a hydrazine linker” (Eur J Med Chem, 2014).
